{"source": "patent US20080146669A1", "about": "“Novel Chloride Channel Pore Openers” (THE UAB RESEARCH FOUNDATION, priority 2005, published 2008)", "key": {"wild-type CFTR": {"target": "wild-type CFTR (Homo sapiens, UniProt P13569)", "sequence (P13569 whole entry)": "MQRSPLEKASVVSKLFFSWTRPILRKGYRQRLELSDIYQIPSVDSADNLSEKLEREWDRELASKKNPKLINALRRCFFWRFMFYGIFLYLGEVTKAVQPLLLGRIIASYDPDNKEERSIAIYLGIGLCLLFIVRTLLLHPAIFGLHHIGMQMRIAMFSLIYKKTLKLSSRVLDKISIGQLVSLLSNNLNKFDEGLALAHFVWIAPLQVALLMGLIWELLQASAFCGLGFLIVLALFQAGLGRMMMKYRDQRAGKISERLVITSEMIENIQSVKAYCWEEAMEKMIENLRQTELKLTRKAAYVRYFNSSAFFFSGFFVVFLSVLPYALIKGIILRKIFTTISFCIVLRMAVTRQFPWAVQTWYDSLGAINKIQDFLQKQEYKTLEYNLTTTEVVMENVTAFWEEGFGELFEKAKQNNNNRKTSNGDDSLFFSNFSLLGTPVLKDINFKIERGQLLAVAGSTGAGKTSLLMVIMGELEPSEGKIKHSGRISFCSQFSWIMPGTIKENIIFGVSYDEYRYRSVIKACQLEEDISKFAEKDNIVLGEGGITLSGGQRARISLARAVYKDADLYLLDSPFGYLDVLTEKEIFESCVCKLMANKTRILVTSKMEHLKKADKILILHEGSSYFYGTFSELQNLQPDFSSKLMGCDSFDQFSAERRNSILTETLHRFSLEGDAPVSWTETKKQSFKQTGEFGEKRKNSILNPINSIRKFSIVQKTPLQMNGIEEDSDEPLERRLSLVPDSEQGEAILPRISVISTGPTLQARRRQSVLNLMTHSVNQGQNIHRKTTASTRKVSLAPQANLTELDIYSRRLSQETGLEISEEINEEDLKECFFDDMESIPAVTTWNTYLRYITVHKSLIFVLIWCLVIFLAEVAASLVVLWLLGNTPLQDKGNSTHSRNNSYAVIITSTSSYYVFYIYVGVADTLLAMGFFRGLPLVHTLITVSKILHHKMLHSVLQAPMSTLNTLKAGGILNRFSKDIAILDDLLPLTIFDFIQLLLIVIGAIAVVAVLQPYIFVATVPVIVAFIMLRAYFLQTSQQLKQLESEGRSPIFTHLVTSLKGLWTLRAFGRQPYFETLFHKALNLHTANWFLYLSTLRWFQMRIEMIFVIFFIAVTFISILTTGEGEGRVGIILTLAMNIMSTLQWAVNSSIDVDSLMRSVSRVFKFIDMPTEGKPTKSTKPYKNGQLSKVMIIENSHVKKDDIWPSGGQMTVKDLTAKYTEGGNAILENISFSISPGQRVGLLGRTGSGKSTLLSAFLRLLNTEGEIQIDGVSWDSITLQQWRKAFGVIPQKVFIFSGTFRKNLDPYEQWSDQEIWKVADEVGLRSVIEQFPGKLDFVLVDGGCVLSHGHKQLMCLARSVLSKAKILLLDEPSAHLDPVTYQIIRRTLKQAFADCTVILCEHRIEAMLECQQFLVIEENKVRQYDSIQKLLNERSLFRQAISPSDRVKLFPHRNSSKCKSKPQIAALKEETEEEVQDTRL", "assay": "Macroscopic currents in excised inside-out patches from BHK-CFTR cells", "assay_type": "biochemical", "set-up": "expressed in transfected cells; provided by J. Hanrahan (McGill University)", "method": "Cell culture DNA constructs and transfections. Baby hamster kidney (BHK) cells stably expressing wild type human CFTR (BHK-CFTR) were provided by J. Hanrahan (McGill University). BHK-CFTR cells were cultured in Dulbecco's modified Eagle's medium (DMEM (Mediatech)) supplemented with 5% fetal bovine serum (FBS) and 1 mM penicillin-streptomycin. The growth media for the BHK-CFTR cells also contained 0.5 mM methotrexate to maintain selection for CFTR-expressing cells (22). HEK-293T cells were transiently transfected with wild-type or mutant CFTR cDNA using the Lipofectamine transfection kit following manufacturer's recommendations (Invitrogen, Corp). HEK-293T cells were cultured in DMEM. All cells were grown on plastic coverslips for patch clamp recording and were used 2-3 days post-seeding. Electrophysiology and data analysis. Macroscopic and multi-channel currents were recorded in the excised, inside-out configuration. Patch pipettes were pulled from Corning 8161 glass to tip resistances of […] (macroscopic recordings) or 8-10 mOhm (micropatch studies). […] CFTR currents were recorded in symmetrical solution containing (in mM): 140 N-methyl-D-glucaniine-Cl, 3 MgCl2, 1 EGTA and 10 TES. The pH was adjusted to 7.3. Macroscopic currents were evoked using a ramp protocol from +80 to −80 mV with a 10 sec time period. Patches were held at −80 mV or +80 mV for micropatch (multichannel) recordings. All patch clamp experiments were performed at 21-23° C. Signals from macroscopic and single channel recording were filtered at 20 and 200 Hz, respectively. Data acquisition and analysis were performed using pCLAMP8 and pCLAMP9 software (Axon Instruments). Curve fitting for kinetic analysis was performed using Microcal Origin software. Averaged data are presented as mean +/−SEM. Statistical comparisons were made by performing unpaired t-tests unless otherwise indicated. Ussing Chamber Experiments-CFBE41o epithelial cells stably transfected with ΔF508-CFTR or transiently transfected with wild-type CFTR were cultured as electrically resistive monolayers and assayed in Ussing chambers as described (16). ΔF508-CFTR-expressing monolayers were grown at 27° C. for 2-3 days to enhance the surface expression of this temperature-sensitive mutant. A serosal-to-mucosal Cl^− gradient (120 to 1.2 mM) was imposed, followed by amiloride addition (100 μM) to block Na^+ currents. Compounds were added to both chambers at the indicated concentrations. A 3-mV voltage pulse was imposed every 100 s to monitor transepithelial resistance."}, "ΔF508-CFTR [1]": {"target": "T1, ΔF508-CFTR (Homo sapiens, UniProt P13569, DEL508-508)", "T1 construct": "expressed in transfected cells; host or cells: HEK-293T, transient; grown at 28° C. for 24 hrs", "T1 sequence (P13569 with tags, fused parts or gaps DEL508-508)": "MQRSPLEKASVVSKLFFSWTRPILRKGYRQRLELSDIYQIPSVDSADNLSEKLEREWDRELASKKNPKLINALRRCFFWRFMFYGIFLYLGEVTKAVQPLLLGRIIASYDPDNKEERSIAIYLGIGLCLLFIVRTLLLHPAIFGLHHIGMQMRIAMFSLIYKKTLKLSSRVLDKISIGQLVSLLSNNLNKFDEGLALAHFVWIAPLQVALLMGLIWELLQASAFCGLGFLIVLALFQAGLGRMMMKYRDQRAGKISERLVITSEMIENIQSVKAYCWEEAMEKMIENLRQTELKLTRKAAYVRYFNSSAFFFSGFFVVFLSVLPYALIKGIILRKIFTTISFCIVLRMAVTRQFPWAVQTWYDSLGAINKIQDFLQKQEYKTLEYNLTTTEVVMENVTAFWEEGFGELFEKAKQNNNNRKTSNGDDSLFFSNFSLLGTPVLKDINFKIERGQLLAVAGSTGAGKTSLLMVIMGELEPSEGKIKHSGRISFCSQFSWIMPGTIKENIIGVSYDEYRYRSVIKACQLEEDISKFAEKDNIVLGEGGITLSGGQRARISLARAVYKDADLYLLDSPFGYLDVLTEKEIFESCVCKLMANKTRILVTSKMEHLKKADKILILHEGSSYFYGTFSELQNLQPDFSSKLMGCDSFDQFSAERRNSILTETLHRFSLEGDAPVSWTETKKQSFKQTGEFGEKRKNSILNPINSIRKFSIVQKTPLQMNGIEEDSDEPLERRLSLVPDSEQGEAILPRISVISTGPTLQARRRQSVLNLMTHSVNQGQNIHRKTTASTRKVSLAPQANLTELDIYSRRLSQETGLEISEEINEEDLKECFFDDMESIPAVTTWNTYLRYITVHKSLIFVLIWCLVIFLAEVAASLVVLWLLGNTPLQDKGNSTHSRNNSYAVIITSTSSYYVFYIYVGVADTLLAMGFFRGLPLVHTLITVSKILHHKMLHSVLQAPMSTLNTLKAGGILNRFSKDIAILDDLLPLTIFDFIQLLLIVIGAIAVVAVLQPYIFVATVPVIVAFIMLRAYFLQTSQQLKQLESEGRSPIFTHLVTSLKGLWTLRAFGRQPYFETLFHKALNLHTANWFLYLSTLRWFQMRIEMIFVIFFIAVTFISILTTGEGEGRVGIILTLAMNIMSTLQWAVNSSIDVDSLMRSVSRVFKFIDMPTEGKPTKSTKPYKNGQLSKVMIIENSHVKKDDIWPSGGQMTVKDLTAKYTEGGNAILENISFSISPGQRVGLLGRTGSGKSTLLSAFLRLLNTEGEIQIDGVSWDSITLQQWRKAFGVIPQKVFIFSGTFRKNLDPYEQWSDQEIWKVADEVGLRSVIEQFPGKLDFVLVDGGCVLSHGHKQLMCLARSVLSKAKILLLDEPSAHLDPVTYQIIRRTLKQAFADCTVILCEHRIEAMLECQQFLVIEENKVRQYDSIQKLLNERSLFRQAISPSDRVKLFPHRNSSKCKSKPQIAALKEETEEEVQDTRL", "assay": "Ussing chamber transepithelial chloride currents, temperature-corrected ΔF508-CFTR CFBE41o- monolayers", "assay_type": "cell-based", "details": "1 μM compound with 1 μM forskolin; N=8-12", "method": "(§1) Cell culture DNA constructs and transfections. Baby hamster kidney (BHK) cells stably expressing wild type human CFTR (BHK-CFTR) were provided by J. Hanrahan (McGill University). BHK-CFTR cells were cultured in Dulbecco's modified Eagle's medium (DMEM (Mediatech)) supplemented with 5% fetal bovine serum (FBS) and 1 mM penicillin-streptomycin. The growth media for the BHK-CFTR cells also contained 0.5 mM methotrexate to maintain selection for CFTR-expressing cells (22). HEK-293T cells were transiently transfected with wild-type or mutant CFTR cDNA using the Lipofectamine transfection kit following manufacturer's recommendations (Invitrogen, Corp). HEK-293T cells were cultured in DMEM. All cells were grown on plastic coverslips for patch clamp recording and were used 2-3 days post-seeding. Electrophysiology and data analysis. Macroscopic and multi-channel currents were recorded in the excised, inside-out configuration. Patch pipettes were pulled from Corning 8161 glass to tip resistances of […] (macroscopic recordings) or 8-10 mOhm (micropatch studies). CFTR channels were activated following patch excision by exposure of the cytoplasmic face of the patch to catalytic subunit of protein kinase A (PKA; 110 U/ml; Promega) and Mg-ATP (1.5 mM). CFTR currents were recorded in symmetrical solution containing (in mM): 140 N-methyl-D-glucaniine-Cl, 3 MgCl2, 1 EGTA and 10 TES. The pH was adjusted to 7.3. Macroscopic currents were evoked using a ramp protocol from +80 to −80 mV with a 10 sec time period. Patches were held at −80 mV or +80 mV for micropatch (multichannel) recordings. All patch clamp experiments were performed at 21-23° C. Signals from macroscopic and single channel recording were filtered at 20 and 200 Hz, respectively. Data acquisition and analysis were performed using pCLAMP8 and pCLAMP9 software (Axon Instruments). Curve fitting for kinetic analysis was performed using Microcal Origin software. Averaged data are presented as mean +/−SEM. Statistical comparisons were made by performing unpaired t-tests unless otherwise indicated. Ussing Chamber Experiments-CFBE41o epithelial cells stably transfected with ΔF508-CFTR or transiently transfected with wild-type CFTR were cultured as electrically resistive monolayers and assayed in Ussing chambers as described (16). ΔF508-CFTR-expressing monolayers were grown at 27° C. for 2-3 days to enhance the surface expression of this temperature-sensitive mutant. A serosal-to-mucosal Cl^− gradient (120 to 1.2 mM) was imposed, followed by amiloride addition (100 μM) to block Na^+ currents. Compounds were added to both chambers at the indicated concentrations. A 3-mV voltage pulse was imposed every 100 s to monitor transepithelial resistance."}, "CFTR-minus cells": {"system": "CFTR-minus cells", "assay": "Currents across patches excised from CFTR-minus (untransfected) cells", "assay_type": "biochemical", "method": "as §1"}, "ΔF508-CFTR [2]": {"target": "T1, ΔF508-CFTR", "assay": "Macroscopic currents in excised patches from temperature-corrected HEK-293T cells expressing ΔF508-CFTR", "assay_type": "biochemical", "details": "high PKA 110 U/ml without PKI", "method": "as §1"}, "AF508-CFTR": {"system": "AF508-CFTR", "details": "tissue culture cells and mice; reported by Egan et al. (12); cited from earlier work"}, "R347D-CFTR": {"target": "T2, R347D-CFTR (Homo sapiens, UniProt P13569, R347D)", "T2 construct": "expressed in transfected cells; host or cells: HEK-293T, transient", "T2 sequence (P13569 whole entry R347D)": "as the sequence (P13569 whole entry) above, with R347D counted along it", "assay": "Macroscopic currents in excised patches from HEK-293T cells transiently transfected with R347D-CFTR", "assay_type": "biochemical", "procedure": "HEK-293T cells were transiently transfected with wild-type or mutant CFTR cDNA using the Lipofectamine transfection kit following manufacturer's recommendations (Invitrogen, Corp). HEK-293T cells were cultured in DMEM. All cells were grown on plastic coverslips for patch clamp recording and were used 2-3 days post-seeding. […] Macroscopic and multi-channel currents were recorded in the excised, inside-out configuration. Patch pipettes were pulled from Corning 8161 glass to tip resistances of 1.5-3.0 mOhm (macroscopic recordings) or 8-10 mOhm (micropatch studies). CFTR channels were activated following patch excision by exposure of the cytoplasmic face of the patch to catalytic subunit of protein kinase A (PKA; 110 U/ml; Promega) and Mg-ATP (1.5 mM). CFTR currents were recorded in symmetrical solution containing (in mM): 140 N-methyl-D-glucaniine-Cl, 3 MgCl2, 1 EGTA and 10 TES. The pH was adjusted to 7.3. Macroscopic currents were evoked using a ramp protocol from +80 to −80 mV with a 10 sec time period. Patches were held at −80 mV or +80 mV for micropatch (multichannel) recordings. All patch clamp experiments were performed at 21-23° C. Signals from macroscopic and single channel recording were filtered at 20 and 200 Hz, respectively. Data acquisition and analysis were performed using pCLAMP8 and pCLAMP9 software (Axon Instruments). […]"}, "AR-S660A-CFTR": {"target": "T3, AR-S660A-CFTR (Homo sapiens, UniProt P13569, DEL708-835/S660A)", "T3 construct": "expressed in transfected cells; host or cells: HEK-293T, transient", "T3 sequence (P13569 with tags, fused parts or gaps S660A/DEL708-835)": "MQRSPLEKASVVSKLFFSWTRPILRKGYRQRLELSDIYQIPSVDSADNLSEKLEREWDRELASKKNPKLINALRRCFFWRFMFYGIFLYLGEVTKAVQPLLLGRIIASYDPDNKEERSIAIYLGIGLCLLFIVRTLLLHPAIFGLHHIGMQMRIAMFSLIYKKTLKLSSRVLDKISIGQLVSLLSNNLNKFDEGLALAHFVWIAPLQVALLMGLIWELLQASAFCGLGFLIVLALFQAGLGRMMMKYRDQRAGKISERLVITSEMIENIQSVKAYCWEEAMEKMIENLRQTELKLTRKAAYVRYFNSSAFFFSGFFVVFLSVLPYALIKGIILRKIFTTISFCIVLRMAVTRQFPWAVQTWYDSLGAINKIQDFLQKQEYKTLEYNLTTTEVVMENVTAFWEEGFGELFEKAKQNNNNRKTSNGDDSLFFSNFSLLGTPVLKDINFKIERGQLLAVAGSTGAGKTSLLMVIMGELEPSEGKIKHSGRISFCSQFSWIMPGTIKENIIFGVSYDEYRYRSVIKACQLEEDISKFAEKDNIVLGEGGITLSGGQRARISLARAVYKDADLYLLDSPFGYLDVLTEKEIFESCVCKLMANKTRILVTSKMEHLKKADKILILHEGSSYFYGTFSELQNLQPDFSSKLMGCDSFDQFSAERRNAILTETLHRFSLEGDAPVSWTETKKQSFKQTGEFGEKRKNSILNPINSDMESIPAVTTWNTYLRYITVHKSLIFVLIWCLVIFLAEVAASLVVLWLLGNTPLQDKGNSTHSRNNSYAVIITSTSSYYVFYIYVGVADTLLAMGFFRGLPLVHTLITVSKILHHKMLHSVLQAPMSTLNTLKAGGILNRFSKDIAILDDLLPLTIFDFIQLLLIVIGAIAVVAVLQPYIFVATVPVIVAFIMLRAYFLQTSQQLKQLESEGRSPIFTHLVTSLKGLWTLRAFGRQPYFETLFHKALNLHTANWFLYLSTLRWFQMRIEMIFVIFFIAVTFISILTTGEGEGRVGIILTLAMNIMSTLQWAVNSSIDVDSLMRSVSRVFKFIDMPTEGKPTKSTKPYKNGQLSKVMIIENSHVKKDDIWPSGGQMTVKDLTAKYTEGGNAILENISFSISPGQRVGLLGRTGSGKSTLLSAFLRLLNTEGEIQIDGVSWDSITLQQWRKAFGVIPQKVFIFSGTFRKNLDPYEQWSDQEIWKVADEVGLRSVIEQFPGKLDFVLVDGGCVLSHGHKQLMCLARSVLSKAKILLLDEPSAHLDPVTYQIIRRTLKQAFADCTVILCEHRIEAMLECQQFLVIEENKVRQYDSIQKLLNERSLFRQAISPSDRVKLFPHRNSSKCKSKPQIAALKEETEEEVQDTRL", "assay": "Macroscopic currents in excised HEK-293T patches, R domain deletion mutant, no PKA", "assay_type": "biochemical", "details": "50 μM", "method": "Cell culture DNA constructs and transfections. Baby hamster kidney (BHK) cells stably expressing wild type human CFTR (BHK-CFTR) were provided by J. Hanrahan (McGill University). BHK-CFTR cells were cultured in Dulbecco's modified Eagle's medium (DMEM (Mediatech)) supplemented with 5% fetal bovine serum (FBS) and 1 mM penicillin-streptomycin. The growth media for the BHK-CFTR cells also contained 0.5 mM methotrexate to maintain selection for CFTR-expressing cells (22). HEK-293T cells were transiently transfected with wild-type or mutant CFTR cDNA using the Lipofectamine transfection kit following manufacturer's recommendations (Invitrogen, Corp). HEK-293T cells were cultured in DMEM. All cells were grown on plastic coverslips for patch clamp recording and were used 2-3 days post-seeding. Electrophysiology and data analysis. Macroscopic and multi-channel currents were recorded in the excised, inside-out configuration. Patch pipettes were pulled from Corning 8161 glass to tip resistances of […] (macroscopic recordings) or 8-10 mOhm (micropatch studies). CFTR channels were activated following patch excision by exposure of the cytoplasmic face of the patch to catalytic subunit of protein kinase A (PKA; 110 U/ml; Promega) and Mg-ATP (1.5 mM). CFTR currents were recorded in symmetrical solution containing (in mM): 140 N-methyl-D-glucaniine-Cl, 3 MgCl2, 1 EGTA and 10 TES. […]"}, "G551D-CFTR": {"target": "T4, G551D-CFTR (Homo sapiens, UniProt P13569, G551D)", "T4 construct": "expressed in transfected cells; host or cells: HEK-293T, transient", "T4 sequence (P13569 whole entry G551D)": "as the sequence (P13569 whole entry) above, with G551D counted along it", "assay": "Macroscopic currents in excised patches from HEK-293T cells expressing G551D-CFTR", "assay_type": "biochemical", "method": "as §1, with “Ussing Chamber Experiments-CFBE41o epithelial cells stably transfected with ΔF508-CFTR or transiently transfected with wild-type CFTR were cultured as electrically resistive monolayers and assayed in Ussing chambers as described (16). ΔF508-CFTR-expressing monolayers were grown at 27° C. for 2-3 days to enhance the surface expression of this temperature-sensitive mutant. A serosal-to-mucosal Cl^− gradient (120 to 1.2 mM) was imposed, followed by amiloride addition (100 μM) to block Na^+ currents. Compounds were added to both chambers at the indicated concentrations. A 3-mV voltage pulse was imposed every 100 s to monitor transepithelial resistance.” left out"}}, "data": [{"smiles": "NC(CCc1ccccc1)C(=O)O", "note": "(stereo not drawn) [APB, reference compound]", "values": [{"measurement": "stimulation of thiolated CFTR channels", "setting": "wild-type CFTR; 400 μM, same conditions as FIG. 1A", "result": "fails to stimulate"}]}, {"smiles": "N#CS", "note": "[SCN^−, reference compound]", "values": [{"measurement": "increased CFTR currents, thiolated channels", "setting": "wild-type CFTR; 10 mM", "result": "neither"}]}, {"smiles": "O=c1c(-c2ccc(O)cc2)coc2cc(O)cc(O)c12", "note": "[genistein, reference compound]", "values": [{"measurement": "potentiation of the forskolin effect on ΔF508-CFTR transepithelial currents", "setting": "ΔF508-CFTR [1]", "result": "failed to potentiate the forskolin response"}]}, {"smiles": "COc1ccc(Cl)cc1C(=O)NCCc1ccc(S(=O)(=O)NC(=O)NC2CCCCC2)cc1", "note": "[glibenclamide]", "values": [{"measurement": "current induced at depolarizing potential in patches excised from CFTR-minus cells", "setting": "CFTR-minus cells", "result": "absent"}]}, {"smiles": "COc1cc(/C=C/C(=O)CC(=O)/C=C/c2ccc(O)c(OC)c2)ccc1O", "note": "[curcumin]", "values": [{"measurement": "effect on ΔF508-CFTR macroscopic currents", "setting": "ΔF508-CFTR [2]; 10 μM", "result": "dramatically stimulated"}, {"measurement": "biosynthetic maturation and functional correction of the ΔF508-CFTR mutant", "setting": "AF508-CFTR", "result": "promotes the biosynthetic maturation and functional correction"}, {"measurement": "time course and reversibility of the stimulation of CFTR current", "setting": "wild-type CFTR", "result": "transient"}, {"measurement": "voltage dependence of the stimulation of CFTR current", "setting": "wild-type CFTR", "result": "voltage-independent"}, {"measurement": "effect on moderately phosphorylated CFTR channels", "setting": "wild-type CFTR; 0.5-40.5 μM, six experiments", "result": "stimulates moderately phosphorylated CFTR channels"}]}, {"smiles": "O=C(O)c1ccccc1Nc1ccccc1", "note": "[DPC, reference compound]", "values": [{"measurement": "increased CFTR currents, thiolated channels", "setting": "wild-type CFTR; 0.5 mM", "result": "neither"}]}, {"smiles": "NS(=O)(=O)c1cc([N+](=O)[O-])ccc1NCCCc1ccccc1", "note": "[NPPB-sulf]", "values": [{"measurement": "effect on CFTR channel activity", "setting": "wild-type CFTR; 100 μM, data not shown", "result": "weak effect"}]}, {"smiles": "O=C(O)c1cc([N+](=O)[O-])ccc1NCCCc1ccccc1", "note": "[NPPB, 5-nitro-2-(3-phenylpropyl-amino)-benzoic acid, reference compound]", "values": [{"measurement": "stimulation of R347D-CFTR currents at depolarizing potentials compared with wild type", "setting": "R347D-CFTR; all levels of phosphorylation", "result": "to a greater extent than for wild type CFTR"}, {"measurement": "effect on currents of moderately phosphorylated R347D-CFTR channels", "setting": "R347D-CFTR; low doses, high PKA followed by PKI", "result": "stimulates currents in both directions"}, {"measurement": "effect on currents in the absence of PKA", "setting": "AR-S660A-CFTR", "result": "markedly stimulate"}, {"measurement": "current induced at depolarizing potential in patches excised from CFTR-minus cells", "setting": "CFTR-minus cells", "result": "absent"}, {"measurement": "effect on currents across a patch from untransfected HEK-293T cells", "setting": "CFTR-minus cells; untransfected HEK-293T", "result": "neither"}, {"measurement": "effect on G551D-CFTR activity", "setting": "G551D-CFTR; 200-400 μM", "result": "markedly stimulated"}, {"measurement": "concentration dependence of G551D-CFTR activation compared to the wild type channel", "setting": "G551D-CFTR; NPPB titration, wild type activated with low PKA", "result": "appreciable shift toward higher concentrations"}, {"measurement": "effect on ΔF508-CFTR macroscopic currents", "setting": "ΔF508-CFTR [2]; 100 μM", "result": "dramatically stimulated"}, {"measurement": "effect on macroscopic current of thiolated (glutathionylated) CFTR channels", "setting": "wild-type CFTR; 200 μM, high PKA 110 U/ml, 1.5 mM MgATP, PKI, diamide/GSH 20 μM", "result": "a large increase in current at depolarizing voltages"}, {"measurement": "effect on currents of moderately phosphorylated wild-type channels", "setting": "wild-type CFTR; 5-300 μM, high PKA followed by PKI, seven experiments", "result": "voltage-dependent block at all doses"}, {"measurement": "effect on currents of poorly phosphorylated, not thiolated CFTR channels", "setting": "wild-type CFTR; 30-230 μM, low PKA 2 U/ml followed by PKI", "result": "stimulated CFTR currents at depolarizing potentials"}, {"measurement": "effect on currents of highly phosphorylated CFTR channels", "setting": "wild-type CFTR; continuous high PKA 110 U/ml without PKI", "result": "Only voltage-dependent block"}, {"measurement": "effect on currents of poorly phosphorylated CFTR channels at higher concentrations", "setting": "wild-type CFTR; higher concentrations of NPPB, low PKA then PKI", "result": "block was observed at all recording potentials"}]}]}
